Consider 1 compound from patent publication US6630583B1, “Antibiotics and methods of using the same” (priority 1998, dated 2003).

The test system of one assay is mutant SPSJ01. Description: Screen of library of loss of function mutants for antibiotic tolerance. In kind it is cell-based, pneumococcus. From the text:
To detect genes that are part of the trigger pathway of the pneumococcal autolysin a library of loss of function mutants has been created, which was screened for antibiotic tolerance [Pearce et al., Mol. Microbiol., 9:1037-1050 (1993)]. […] It is reasonable to assume that this two component system represents the start of the pneumococcal autolytic trigger pathway, functioning as a relay station reacting to cell density signals or the binding of antibiotics to penicillin binding proteins. Similar to the enterococcal histidine kinase VanSB, the pneumococcal VncS works most likely as a kinase/phosphatase (see Example 1, above).

A further assay has as its system Orf W1 mutant. The assay can be described thus: Phenotypes of the mutants: lysis by penicillin, vancomycin, DOC. In kind it is cell-based, S. pneumoniae. As for the experimental part:
(§1) Construction of mutations: Insertion duplication mutagenesis was carried out using PCR to generate gene fragments for homologous recombination proximal to the amino terminus of OrfW1, HK or RR as follows:
(§2) Phenotypes of the mutants: The mutants were assessed for various physiological functions characteristic of pneumococci. This included lysis by penicillin, vancomycin, and the detergent deoxycholate (DOC). Other capabilities tested included ability to undergo natural DNA transformation (Transform) and expression of the LytA protein as assessed by Western blot.

In a further assay the test system is RR mutant. The description is as above. In kind it is cell-based, S. pneumoniae. As for the experimental part: as §1, §2
A further assay concerns HK mutant. The description is as above. In kind it is cell-based, S. pneumoniae. As for the experimental part: as §1, §2
The next assay relates to parent strain R6. The assay can be described thus: Effect of vancomycin treatment on viability. Conditions: R6, vancomycin 10×MIC (5 μg/ml), over 4 hours. In kind it is cell-based, S. pneumoniae.
In assay [1] the test system is strain RNET01 (vncS over-expressed). Description: Effect of vancomycin treatment on viability. In kind it is cell-based, S. pneumoniae. Particulars: RNET01, vancomycin 10×MIC (5 μg/ml), over 4 hours.
Protocol: (§3) The effect of penicillin and vancomycin treatment on the viability was determined by exposing 10 ml cultures in the early exponential phase of growth (OD620nm=0.3, corresponding 5×10^7 cfu/ml) to ten times the MIC of benzylpenicillin or vancomycin, respectively. After various times of exposure, 100 μl portions were removed, serially diluted in C+Y and in the case of penicillin supplemented with 100 units of penicillinase (Sigma), and plated on tryptic-soy agar supplemented with 3% sheep blood (v/v).
To address the question if the kinase/phosphatase VncS was indeed directly linked to the major pneumococcal autolytic pathway, VncS was overexpressed from a plasmid in a vncS deficient knockout mutant. […] To establish a possible correlation between over-expression of the vncS gene and cell death RNET01 and R6 were exposed to vancomycin.
The next assay deals with clinical isolate A144. Description: Cell viability (CFU/ml) one hour after addition. In kind it is cell-based, pneumococcus. Conditions: 10×MIC of penicillin, 1×MIC of vancomycin or 0.4 mM peptide. From the text:
Tolerance to penicillin occurs in bacteria that fail to trigger autolysins in response to the drug. […] This is a mechanism of resistance to these drugs and is a serious emerging medical problem. […] However, one pneumococcal strain that fails to lyse and dies slowly in response to both penicillin and vancomycin is the clinical isolate A144. This combination of traits makes A144 recalcitrant to therapy. FIG. 8 compares the activity of penicillin, vancomycin, and the peptide having the amino acid sequence of SEQ ID NO:2 against a classical sensitive strain, R6, and the tolerant strain A144. […] In contrast, strain A144 loses only 0.5 logs of viability in the same time period for all three therapies. […] Thereafter the bacteria grew more slowly than untreated controls.

The subject of another assay is vexp3 mutant. Description: Effect of antibiotic treatment on viability. In kind it is cell-based, S. pneumoniae. Particulars: 10×MIC of vancomycin, in 4 hours.
Assay [2] deals with loss of function mutants of the ABC transporter and RR/HK. The assay can be described thus: Tolerance of loss of function mutants. Particulars: growth inhibitory concentrations. In kind it is cell-based, S. pneumoniae. From the text:
As described in Example 6, using insertion duplication mutagenesis, loss of function mutations were obtained in each of the 3 open reading frames of the ABC transporter and each of the two parts of the RR/HK. […] These parallel phenotypes further implicate these topographically close genes in a common pathway.
Vancomycin is the only antibiotic that maintains efficacy against many strains of highly antibiotic resistant bacteria, such as staphylococci, enterococci and pneumococci. Escape from antibiotic activity of vancomycin has been detected in rare staphylococci and enterococci but not in pneumococci as yet. […] Infect. Dis. J., 12:196-200 (1993); Marton et al., J. Infect. Dis., 163:542-8 (1991); and Bradley et al., Pediatr. Infect. Dis., 14:1037-1041 (1995)]. […] If they created a phenotype which was corrected by exogenous peptide, they may participate in the biological activity of the peptide. For instance, the ABC transporter may transport the peptide and the HK may serve as an extracellular receptor for the peptide which then changes the behavior of the bacteria (i.e., killing) via a RR signal.

The test system of assay [3] is leucine deprived R6 cells. The assay can be described thus: Stringent response: lysis after leucine deprivation. In kind it is cell-based, S. pneumoniae. Conditions: 10×MIC of penicillin or vancomycin, 0.2 mM P27, or combination. The protocol:
P27 and the stringent response mechanism: The stringent response is believed to prevent the death pathway. To clarify the relationship of the stringent response to P27 activity, protein synthesis of R6 was inhibited by leucine deprivation and the effect of P27 was monitored (FIG. 19). […] The minimum concentration of penicillin required to cause penicillin dependent autolysis was equal to its MIC ([…]).

The next assay relates to clinical isolate F79. Description: Lysis of tolerant clinical isolate. In kind it is cell-based, pneumococcus. Particulars: 10×MIC of penicillin and/or 0.5 mM peptide. The protocol:
FIGS. 11A-11B show the effects of 10×MIC of penicillin and/or 0.5 mM of the peptide having the amino acid sequence of SEQ ID NO:2 on the lysis of clinical isolate F79 cells (FIG. 11A) and HK mutant VanS cells (FIG. 11B).
F79 is a natural isolate of pneumococcus with mutations in the HK and the ABC transporter genes as determined by SSCP (see Example 11).

Protocol for parent strain R6: Bacterial viability was followed for six hours.
as §3
Protocol for vexp3 mutant: Bacterial viability was followed for six hours. (Parent strain, R6 (□), vex3 mutant (◯), and vncS mutant (⋄)).
as §3

Take `CN[C@H](CC(C)C)C(=O)N[C@H]1C(=O)N[C@@H](CC(N)=O)C(=O)N[C@H]2C(=O)N[C@H]3C(=O)N[C@H](C(=O)N[C@H](C(=O)O)c4cc(O)cc(O)c4-c4cc3ccc4O)[C@H](O)c3ccc(c(Cl)c3)Oc3cc2cc(c3O[C@@H]2O[C@H](CO)[C@@H](O)[C@H](O)[C@H]2O[C@H]2C[C@](C)(N)[C@H](O)[C@H](C)O2)Oc2ccc(cc2Cl)[C@H]1O` [vancomycin]: the “death in the presence of antibiotic” value with mutant SPSJ01 is recorded as “failed to die”. Besides, the “Lysis by” value in the assay with Orf W1 mutant is recorded as “tolerant”; in the assay with RR mutant it was “sensitive”; with HK mutant, “tolerant”. In addition, in the assay on parent strain R6, the “loss in viability (kill)” value is 4 log. In assay [1], this compound yielded a loss in viability of 1 log. The loss of viability in the assay on clinical isolate A144 stood at 0.5 logs. Further, the kill result in the assay with vexp3 mutant is “less than 2 log”. For the same compound, in assay [2], the “tolerance (lysis and death)” value was “exhibited tolerance”. Moreover, the “lysis of R6 under leucine deprivation” value in [3] is “neither the addition of 10×the MIC of penicillin or vancomycin nor the addition of 0.2 mM P27 resulted in lysis”. Moreover, in the assay on clinical isolate F79, the “lysis of F79” value is “tolerant”.
